Patent publication US5929236A, “2-substituted morpholine and thiomorpholine derivatives as GABA-B antagonists” (Schering Corporation, priority 1995, dated 1999)

How the values were obtained:
GABAB receptors = biological target: T1, GABAB receptors (Rattus norvegicus, UniProt Q9Z0U4); experiment: GABAB Receptor Binding Assay ([3H]GABA, rat brain synaptosomes); conditions: 5 nM [3H]GABA, rat brain synaptosomes, 20° C., 30 min
T1 construct: Rat brain synaptosomes are used as a source of GABAB receptors; from tissue; host or cells: rat brain synaptosomes
T1 sequence (Q9Z0U4 17-960 limits assumed): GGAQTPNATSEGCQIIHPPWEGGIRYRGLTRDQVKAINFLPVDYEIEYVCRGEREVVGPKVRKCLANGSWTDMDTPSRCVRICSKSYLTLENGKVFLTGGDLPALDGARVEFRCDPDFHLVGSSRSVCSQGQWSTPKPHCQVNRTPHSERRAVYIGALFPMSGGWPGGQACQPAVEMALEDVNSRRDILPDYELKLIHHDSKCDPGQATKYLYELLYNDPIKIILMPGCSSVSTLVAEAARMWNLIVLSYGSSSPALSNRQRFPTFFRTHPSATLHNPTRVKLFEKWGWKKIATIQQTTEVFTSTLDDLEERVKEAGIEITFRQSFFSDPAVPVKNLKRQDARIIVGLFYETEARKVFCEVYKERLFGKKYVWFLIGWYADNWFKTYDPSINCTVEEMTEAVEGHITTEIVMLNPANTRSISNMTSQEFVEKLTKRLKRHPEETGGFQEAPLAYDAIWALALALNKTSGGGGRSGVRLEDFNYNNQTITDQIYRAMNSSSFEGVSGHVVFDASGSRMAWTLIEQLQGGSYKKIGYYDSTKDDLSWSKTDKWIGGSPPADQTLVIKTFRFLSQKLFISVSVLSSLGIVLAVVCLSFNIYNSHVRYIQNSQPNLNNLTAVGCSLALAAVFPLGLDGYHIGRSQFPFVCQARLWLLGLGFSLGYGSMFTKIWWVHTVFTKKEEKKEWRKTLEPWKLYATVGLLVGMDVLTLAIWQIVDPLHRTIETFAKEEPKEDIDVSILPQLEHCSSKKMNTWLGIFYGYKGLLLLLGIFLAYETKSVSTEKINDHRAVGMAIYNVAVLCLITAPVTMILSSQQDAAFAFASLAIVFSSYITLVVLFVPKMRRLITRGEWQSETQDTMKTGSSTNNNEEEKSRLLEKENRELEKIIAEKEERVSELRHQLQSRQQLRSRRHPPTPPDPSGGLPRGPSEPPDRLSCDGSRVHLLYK
T1 sequence (O88871 41-940 partner): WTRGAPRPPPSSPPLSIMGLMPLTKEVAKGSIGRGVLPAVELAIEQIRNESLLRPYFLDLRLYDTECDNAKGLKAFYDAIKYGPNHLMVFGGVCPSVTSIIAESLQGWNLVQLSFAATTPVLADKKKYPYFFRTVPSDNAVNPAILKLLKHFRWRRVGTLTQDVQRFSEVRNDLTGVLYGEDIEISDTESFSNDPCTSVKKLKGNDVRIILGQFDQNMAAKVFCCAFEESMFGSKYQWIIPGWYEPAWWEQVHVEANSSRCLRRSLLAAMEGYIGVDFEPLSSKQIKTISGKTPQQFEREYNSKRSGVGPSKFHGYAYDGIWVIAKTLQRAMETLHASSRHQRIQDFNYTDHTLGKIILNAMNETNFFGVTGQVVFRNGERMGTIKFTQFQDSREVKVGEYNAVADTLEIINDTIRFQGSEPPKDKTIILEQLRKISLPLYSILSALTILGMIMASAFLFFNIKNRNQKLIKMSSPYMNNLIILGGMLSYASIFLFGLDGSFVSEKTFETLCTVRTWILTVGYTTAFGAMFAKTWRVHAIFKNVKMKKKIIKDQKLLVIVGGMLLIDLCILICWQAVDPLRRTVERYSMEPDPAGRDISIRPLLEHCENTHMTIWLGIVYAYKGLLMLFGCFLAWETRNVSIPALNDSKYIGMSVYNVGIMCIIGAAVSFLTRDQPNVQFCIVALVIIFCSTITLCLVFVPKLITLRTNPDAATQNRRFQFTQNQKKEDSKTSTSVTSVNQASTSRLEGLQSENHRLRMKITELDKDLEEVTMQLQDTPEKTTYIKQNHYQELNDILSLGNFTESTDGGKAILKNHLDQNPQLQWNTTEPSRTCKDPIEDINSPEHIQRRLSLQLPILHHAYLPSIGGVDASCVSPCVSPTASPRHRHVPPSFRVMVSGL
Experimental: GABAB Receptor Binding Assay
The percentage inhibition of GABA binding to GABAB receptors is measured by tritiated GABA ([^3 H]GABA) determination of the degree of binding by scintillation counting. Rat brain synaptosomes are used as a source of GABAB receptors. An incubation medium is prepared from the following: 20 μg/mL of the compound to be tested as a solution in 1% DMSO/water; 5 nM [^3 H]GABA; 50 mM Tris buffer (pH 7.5); and 2.5 mM CaCl2. The medium also contains 40 μM isoguvacine to selectively block binding to GABAA receptors. The synaptosome (200 μg/mL) is added to the incubation medium and incubated for 30 minutes at 20° C. The incubation is terminated by filtration and counted to determine the percentage inhibition of [^3 H]-GABA binding. The results are reported as IC50 values for those compounds inhibiting [^3 H]-GABA binding by >50%.

[1] = system: seizure in rats induced by GBL; experiment: Prevention of seizure in rats induced by GBL; format: in vivo, rat; conditions: 100 mg/kg GBL (ip)
Experimental: (§1) Animal Models for Absence Seizures
(§2) A. Snead, Eur. J. Pharmacol., 213, 343-349 (1992), teaches a pharmacological model for testing the effectiveness of GABAB antagonists in preventing seizures induced by intra-peritoneal (ip) administration of either γ-butyrolactone (GBL) or pentylenetetrazole (PTZ) to rats. The animal is treated with the test compound, then monitored after being subjected to a dose of either GBL or PTZ sufficient to induce seizures.

[2] = system: seizure in rats induced by PTZ; experiment: Prevention of seizure in rats induced by PTZ; format: in vivo, rat; conditions: PTZ model
Experimental: as §1, §2

[3] = system: seizure in lethargic (lh/lh) mice; experiment: Prevention of seizure in lethargic (lh/lh) mice; format: in vivo
From the text: B. Hosford, et al., Science, 257, 398-401 (Jul. 17, 1992), teaches a pharmacological model for testing the effectiveness of GABAB antagonists as anticonvulsants for the treatment of absence seizures by administering the compound to be tested to lethargic (lh/lh) mice, a mutant strain with spontaneous seizures.

[4] = system: Respiratory Depressant Effect of Baclofen; experiment: Reversal of the Respiratory Depressant Effect of Baclofen via icv Administration; format: in vivo, guinea pig; conditions: 50 μg in 10 μl of vehicle, icv, 5 min before measurement of ventilation; mean ± SEM
Experimental: Animal Model for Respiratory Depression:
Place unanesthetized guinea pigs in a head-out plethysmograph and expose to a CO2 enriched gas mixture (10% CO2, 21% O2, 69% N2) for 10 min., (see Danko, et al., J. Pharm. Methods, 19, 165-173 (1988)). Plethysmograph pressure is detected with a transducer connected to a chart recorder. Minute ventilation is calculated as the product of tidal volume and respiratory frequency. The compound to be tested is administered orally, subcutaneously (sc), intraperitoneally (ip) or via an intracerebroventricular route (icv). Baclofen (3 mg/kg, sc) was given 30 min before exposure to the CO2 enriched gas. When given by the oral route, the compounds is administered 1, 3, 5 or 7 h before exposure to CO2 enriched gas. A 40 or 30 min. preteratment is used for the subcutaneous and intraperitoneal routes, respectively. The vehicle for oral, sc or ip administration is saline. For icv administration, single icv cannulae are placed in the lateral ventricle of anesthetized guinea pigs, (see McLeod, et al., Eur. J. Pharmacol., 209, 141-142 (1988)). The animals are allowed to recover approximately one week prior to use for ventilation experiments. The vehicle for icv administration is artificial cerebrospinal fluid (CSF).

## CC1(C)COC(CC(=O)O)CN1 (single isomer, unassigned) [Example 6A]
GABAB receptors
  IC50: 2 µM
[1]; 0.75 mg/kg, 20 min
  SWD duration: 970 s
[1]; 0.75 mg/kg, 40 min
  SWD duration: 1150 s
[1]; 0.75 mg/kg, 60 min
  SWD duration: 500 s
[1]; 0.75 mg/kg, 80 min
  SWD duration: 280 s
[1]; 0.75 mg/kg, 100 min
  SWD duration: 50 s
[1]; 0.75 mg/kg, 120 min
  SWD duration: 0 s
[1]; 1.5 mg/kg, 20 min
  SWD duration: 560 s
[1]; 1.5 mg/kg, 40 min
  SWD duration: 540 s
[1]; 1.5 mg/kg, 60 min
  SWD duration: 0 s
[1]; 1.5 mg/kg, 80 min
  SWD duration: 0 s
[1]; 1.5 mg/kg, 100 min
  SWD duration: 0 s
[1]; 1.5 mg/kg, 120 min
  SWD duration: 0 s
[1]; 3.0 mg/kg, 20 min
  SWD duration: 0 s
[1]; 3.0 mg/kg, 40 min
  SWD duration: 0 s
[1]; 3.0 mg/kg, 60 min
  SWD duration: 0 s
[1]; 3.0 mg/kg, 80 min
  SWD duration: 0 s
[1]; 3.0 mg/kg, 100 min
  SWD duration: 0 s
[1]; 3.0 mg/kg, 120 min
  SWD duration: 0 s
[2]; 0.18 mg/kg, 20 min
  SWD duration: 250 s
[2]; 0.18 mg/kg, 40 min
  SWD duration: 235 s
[2]; 0.18 mg/kg, 60 min
  SWD duration: 140 s
[2]; 0.18 mg/kg, 80 min
  SWD duration: 60 s
[2]; 0.18 mg/kg, 100 min
  SWD duration: 15 s
[2]; 0.18 mg/kg, 120 min
  SWD duration: 0 s
[2]; 0.375 mg/kg, 20 min
  SWD duration: 150 s
[2]; 0.375 mg/kg, 40 min
  SWD duration: 140 s
[2]; 0.375 mg/kg, 60 min
  SWD duration: 55 s
[2]; 0.375 mg/kg, 80 min
  SWD duration: 25 s
[2]; 0.375 mg/kg, 100 min
  SWD duration: 0 s
[2]; 0.375 mg/kg, 120 min
  SWD duration: 0 s
[2]; 0.75 mg/kg, 20 min
  SWD duration: 90 s
[2]; 0.75 mg/kg, 40 min
  SWD duration: 70 s
[2]; 0.75 mg/kg, 60 min
  SWD duration: 45 s
[2]; 0.75 mg/kg, 80 min
  SWD duration: 0 s
[2]; 0.75 mg/kg, 100 min
  SWD duration: 0 s
[2]; 0.75 mg/kg, 120 min
  SWD duration: 0 s
[2]; 1.5 mg/kg, 20 min
  SWD duration: 0 s
[2]; 1.5 mg/kg, 40 min
  SWD duration: 0 s
[2]; 1.5 mg/kg, 60 min
  SWD duration: 0 s
[2]; 1.5 mg/kg, 80 min
  SWD duration: 0 s
[2]; 1.5 mg/kg, 100 min
  SWD duration: 0 s
[2]; 1.5 mg/kg, 120 min
  SWD duration: 0 s
[3]; 1.0 mg/kg ip
  Seizures (% vehicle) in 120 min.: 85%
[3]; 3.0 mg/kg ip
  Seizures (% vehicle) in 120 min.: 60%
[3]; 10 mg/kg ip
  Seizures (% vehicle) in 120 min.: 15%
[3]; 30 mg/kg ip
  Seizures (% vehicle) in 120 min.: 5%
[4]
  % Inhibition: 99 ± 23%
